Test results reported in article PMC9014320 (Computational and Structural Biotechnology Journal, 2022).

How the values were obtained:
cP2X3^WT = test: Patch-clamp recording of ATP current, cP2X3 WT in HEK293 cells; type: cell-based, chicken; conditions: AF-219 30 μM
cP2X3^A196G = test: Patch-clamp recording of ATP current, cP2X3 A196G in HEK293 cells; type: cell-based, chicken; conditions: AF-219 30 μM
P2X3 receptors = conditions: read-out: IC50, the concentration yielding half of the maximal inhibition; cited from earlier work
P2X1 = conditions: cited from earlier work
P2X2 = conditions: cited from earlier work
P2X4 = conditions: cited from earlier work
P2X5 = conditions: cited from earlier work
P2X7 = conditions: cited from earlier work
rP2X3^L191A = conditions: cited from earlier work
rP2X2^gain = rP2X2^gain versus rP2X3^WT

Fold increase of IC50 for rP2X2^gain over rP2X3^WT (rP2X2^gain) [fold]	SMILES	Effect on the ATP (10 μM)-current of cP2X3^WT (cP2X3^WT)	Effect on the ATP (10 μM)-current of cP2X3^A196G (cP2X3^A196G)	IC50 (P2X3 receptors) [µM]	IC50 (P2X1) [µM]	IC50 (P2X2) [µM]	IC50 (P2X4) [µM]	IC50 (P2X5) [µM]	IC50 (P2X7) [µM]	Inhibition of rP2X3^L191A (rP2X3^L191A)
	COc1cc(C(C)C)c(Oc2cnc(N)nc2N)cc1S(N)(=O)=O [AF-219]	no inhibitory effect	significantly inhibited	0.0426 ± 0.0029	> 10	> 10	> 10	> 10	> 10	almost fully abolished the inhibition
18	CCC(C)c1cc(OC)c(Cl)cc1Oc1cnc(N)nc1N (stereo not shown) [AF-219-2, 5-(2-(sec-butyl)-5-chloro-4-methoxyphenoxy)pyrimidine-2,4-diamine]									
